How the values were obtained:
[1] = Single dose AR-42 plasma and tissue pharmacokinetics in mouse; assay type: in vivo; details: for Plasma exposure: tumor-free mice
Experimental: FIG. 1A is a graph showing results of a single dose AR-42 plasma and tissue pharmacokinetic study. Tumor-free […] mice were administered a single dose of 10 mg/kg, 20 mg/kg or 50 mg/kg AR-42 (n=3) and plasma (dashed) and gastrocnemius (solid) tissue analyzed for AR-42 content at different times using LC-MS/MS analyses according to Materials and Methods (Mean±SD). FIG. 1B is a graph showing AR-42 dose-response. Starting six days after C-26 cell injection, animals received vehicle or AR-42 orally at 10 or 20 mg/kg daily or 50 mg/kg every other day for 13 days (n=4-6). Day 18 bodyweights compared to Day 0, corrected for tumor mass according to the Materials and Methods. Bars represent mean±SD. *p<0.05, ****p<0.0001 versus tumor-bearing vehicle-treated controls, Tukey's multiple comparison test. FIG. 1C is a table showing AR-42's in vitro human HDAC inhibition profile determined using recombinant enzymatic assays. […] Longitudinal mean bodyweights per treatment group are presented as a percent change from pre-study body weights. Tumor-free animals (circles), tumor-bearing animals (bars). Inset: terminal tumor volumes (mean+SD, n=5-6 per group).
Pharmacokinetic studies were performed as previously described (Cheng H et al. AAPS J. 2016 18(3):737-45).
Pharmacokinetic studies were performed as previously described (Cheng H, et al. AAPS J. 2016 18(3):737-45) with the following modifications. Seven week-old, male, tumor-free CD2F1 mice (n=3 per dose and time point) were administered single oral doses of 10, 20 and 50 mg/kg AR-42 and then sacrificed 0.25, 4 and 24 hours later. Fifty mg of gastrocnemius muscle tissue was flash frozen in 2 mL Beadblaster™ 24 (MIDSCl; St. Louis, Mo.) tubes and stored at −80° C. Samples were homogenized for 6-cycles using a Beadblaster 24 with analytical standards in 1 mL methanol and then centrifuged at 13,000 rpm (4° C.) for 10 min. Supernatants were transferred to glass tubes, dried under nitrogen, then reconstituted in 200 μL 40% methanol/0.1% formic acid. Plasma preparation and LC-MS/MS analyses were performed as previously described (Sborov D W, et al. Leuk Lymphoma 2017 58(10):2310-8). Mouse plasma and muscle pharmacokinetic parameters were estimated as previously described with the exception of Cavg which was calculated as AUCall/[Dosing Interval(h)].

IL-6 = assay: Serum IL-6 ELISA, Study 2; assay type: in vivo, mouse; details: Study 2 terminal serum; AR-42 10 mg/kg
Excerpt: FIG. 4A is a table showing multiplex analysis of diverse serum cytokines in terminal samples from Study 2. Presented cytokines are limited to those showing significant differences from tumor-bearing vehicle-treated controls. G-CSF: granulocyte colony-stimulating factor, GM-CSF: granulocyte macrophage colony-stimulating factor, IL-6: interleukin-6, IL-17: interleukin-17, IP-10: interferon gamma-induced protein 10, KC: chemokine (C-X-C motif) ligand 1, LIF: leukemia inhibitory factor, M-CSF: macrophage colony-stimulating factor. FIG. 4B is a bar graph showin ELISA analysis of serum IL-6 levels in terminal samples from Study 2. ND, not detected. FIG. 4C is a plot showing individual animal serum IL-6 values as determined in A plotted against tumor-corrected terminal bodyweights from Study 2 (Pearson's Correlation). […] FIG. 4E is a plot showing spleen weights normalized to tumor-corrected terminal body weights of mice from Study 2. FIG. 4F is a bar graph showing ELISA analysis of STAT3 within C-26 tumors from Study 2. […]
(§1) Serum cytokine panel analyses were performed by a commercial vendor (Eve Technologies, Calgary, Canada) as previously described. Serum interleukin-6 (IL-6) was measured using a commercial ELISA kit (R&D Systems, Minneapolis, Minn., USA) according to the manufacturer's instructions.

[2] = Sborov et al. 2017; cited from earlier work
serum cytokines = assay: Serum cytokine panel, multiplex analysis, Study 2, tumor-free mice; assay type: in vivo, mouse; details: GTx-024 15 mg/kg p.o. qd, Day 17 sacrifice, mean ± SD
Experimental: This confirmatory study was performed exactly as Study 1 with expanded animal numbers. Tumor-free control groups were maintained at 6 animals each, whereas 10 animals were included in each of the tumor-bearing groups. […] Grip strength was measured on study days 0 (baseline) and 16. Due to rapid model progression, this study was terminated after only 12 days of treatment.
as §1

luteinizing hormone = assay: Serum luteinizing hormone radioimmunoassay, Study 1; assay type: in vivo, mouse; details: Study 1, Day 18; C-26 tumor bearing mice; GTx-024 15 mg/kg
Experimental: FIG. 9A is a bar graph showing serum luteinizing hormone levels measured on Day 18. FIG. 9B is a graph showing per animal food consumption measured every two days. FIG. 9C is a plot showing spleen weights normalized to tumor mass-corrected terminal body weight. […], versus tumor-bearing vehicle-treated controls, Dunnett's multiple comparison test.
Luteinizing hormone (LH) was measured in serum by a two-site sandwich radioimmunoassay performed by the Ligand Assay and Analysis Core at the Center for Research in Reproduction, University of Virginia School of Medicine (Charlottesville, Va.). Serum was isolated by centrifugation (2000×g, 15 minutes) from whole blood samples collected from mice immediately post-mortem, and then stored at −80° C. until shipment on dry ice.

Which results are given for CC(C)[C@H](C(=O)Nc1ccc(C(=O)NO)cc1)c1ccccc1 [AR-42, (S)—N-hydroxy-4-(3-methyl-2-phenylbutanamido)benzamide]?
concentration at 4 h ([1]; male, mouse, in vivo, single oral dose 10 mg/kg, remained above for 4 hours, read-out: gastrocnemius muscle concentrations): > 700 nM; mouse plasma exposure at 50 mg/kg relative to well tolerated plasma exposure in humans ([1]; oral 50 mg/kg in mice versus 8.5 μM*h in humans): 8.7 fold; Plasma exposure ([1]; single oral dose 10 mg/kg): 10.9 µM·h; Plasma exposure ([1]; single oral dose 50 mg/kg): 74.3 µM·h; circulating IL-6 levels (ELISA) (IL-6): did not affect circulating IL-6 levels; well tolerated plasma exposure in humans [2]: 8.5 µM·h

Which results are given for C[C@](O)(COc1ccc(C#N)cc1)C(=O)Nc1ccc(C#N)c(C(F)(F)F)c1 [GTx-024, (2S)-3-(4-cyanophenoxy)-N-(4-cyano-3-(trifluoromethyl)phenyl)-2-hydroxy-2-methylpropanamide]?
Eotaxin, serum (serum cytokines): 669.53 ± 100.70 pg/mL; G-CSF, serum (serum cytokines): 338.39 ± 71.70 pg/mL; GM-CSF, serum (serum cytokines): 13.27 ± 4.62 pg/mL; IFNg, serum (serum cytokines): 5.93 ± 2.14 pg/mL; IL12 (p40), serum (serum cytokines): 22.48 ± 13.42 pg/mL; IL-1a, serum (serum cytokines): 60.41 ± 56.12 pg/mL; IL-1b, serum (serum cytokines): 14.65 ± 5.66 pg/mL; IL-2, serum (serum cytokines): 15.43 ± 6.56 pg/mL; IL-3, serum (serum cytokines): 1.10 ± 0.63 pg/mL; IL-4, serum (serum cytokines): 0.48 ± 0.37 pg/mL; IL-5, serum (serum cytokines): 5.71 ± 3.26 pg/mL; IL-6, serum (serum cytokines): 2.45 ± 1.31 pg/mL; IL-7, serum (serum cytokines): 11.51 ± 11.06 pg/mL; IL-9, serum (serum cytokines): 8.02 ± 6.78 pg/mL; IL-10, serum (serum cytokines): 2.38 ± 1.13 pg/mL; IL-12 (p70), serum (serum cytokines): 10.83 ± 6.12 pg/mL; IL-13, serum (serum cytokines): 29.87 ± 12.81 pg/mL; IL-15, serum (serum cytokines): 131.33 ± 70.97 pg/mL; IL-17, serum (serum cytokines): 5.01 ± 1.18 pg/mL; IP-10, serum (serum cytokines): 145.68 ± 48.83 pg/mL; KC, serum (serum cytokines): 90.02 ± 17.69 pg/mL; LIF, serum (serum cytokines): 2.50 ± 2.34 pg/mL; LIX, serum (serum cytokines): 1316.67 ± 1662.66 pg/mL; M-CSF, serum (serum cytokines): 27.23 ± 10.09 pg/mL; MCP-1, serum (serum cytokines): 54.54 ± 7.47 pg/mL; MIG, serum (serum cytokines): 89.29 ± 41.83 pg/mL; MIP-1a, serum (serum cytokines): 75.46 ± 29.41 pg/mL; MIP-1b, serum (serum cytokines): 87.69 ± 10.61 pg/mL; MIP-2, serum (serum cytokines): 136.75 ± 47.91 pg/mL; RANTES, serum (serum cytokines): 20.84 ± 10.38 pg/mL; TNFa, serum (serum cytokines): 12.15 ± 4.24 pg/mL; VEGF, serum (serum cytokines): 0.87 ± 0.32 pg/mL; serum luteinizing hormone (luteinizing hormone): suppression of serum luteinizing hormone
